Source: patent publication US20180273538A1, “PYRROLO[2,3-d]PYRIMIDINE DERIVATIVES, A PROCESS FOR THEIR PREPARATION AND PHARMACEUTICAL COMPOSITIONS CONTAINING THEM” (LES LABORATOIRES SERVIER, priority 2015, published 2018)

Biological target: T1, His-TEV-DYRK1A Kinase domain (aa127-485) (Homo sapiens, UniProt Q13627)
T1 construct: His-TEV-DYRK1A Kinase domain (aa127-485); His (N); TEV cleavage site (N)
Test: Kinase ADP assay (ADP Hunter Plus)
Format: biochemical

Row | IC50 [µM] | Compound
1 | 0.734 | C=C(C)c1nc(NCc2c(F)cccc2F)c2c(-c3ccnc(N)c3)c[nH]c2n1 [Example 149, 5-(2-aminopyridin-4-yl)-N-(2,6-difluorobenzyl)-2-(prop-1-en-2-yl)-7H-pyrrolo[2,3-d]pyrimidin-4-amine]
2 | 0.116 | Cc1nc(COc2ccccc2C(F)(F)F)c2c(-c3ccnc(N)c3)c[nH]c2n1 [Example 193, 4-(2-methyl-4-{[2-(trifluoromethyl)phenoxy]methyl}-7H-pyrrolo[2,3-d]pyrimidin-5-yl)pyridin-2-amine]
3 | 1.82 | Cc1nc(-c2cncc(F)c2)c2c(-c3ccnc(N)c3)c[nH]c2n1 [Example 170]
4 | 0.024 | C#Cc1nc(-c2ccc3c(c2)OCO3)c2c(-c3cc(N)nc(N)c3)c[nH]c2n1 [Example 155, 4-[4-(1,3-benzodioxol-5-yl)-2-ethynyl-7H-pyrrolo[2,3-d]pyrimidin-5-yl]pyridine-2,6-diamine]
5 | 0.418 | Cc1nc(N2C[C@@H](C)O[C@@H](C)C2)c2c(-c3cc(N)nc(N)c3)c[nH]c2n1 [Example 126, 4-{4-[(2R,6S)-2,6-dimethylmorpholin-4-yl]-2-methyl-7H-pyrrolo[2,3-d]pyrimidin-5-yl}pyridine-2,6-diamine + 4-{4-[(2S,6R)-2,6-dimethylmorpholin-4-yl]-2-methyl-7H-pyrrolo[2,3-d]pyrimidin-5-yl}pyridine-2,6-diamine]
6 | 0.296 | Cc1nc(NCCc2ccccn2)c2c(-c3ccnc(N)c3)c[nH]c2n1 [Example 124, 5-(2-aminopyridin-4-yl)-2-methyl-N-[2-(pyridin-2-yl)ethyl]-7H-pyrrolo[2,3-d]pyrimidin-4-amine]
7 | 0.301 | Cc1nc(-c2ccc(CN3CCCC3)cc2)c2c(-c3ccnc(N)c3)c[nH]c2n1 [Example 165]
8 | 0.419 | Cc1nc([C@@H]2CCc3ccccc3C2)c2c(-c3ccnc(N)c3)c[nH]c2n1 [Example 190]
9 | 0.011 | Cc1nc(N[C@@H]2CCc3ccccc32)c2c(-c3cc(N)nc(N)c3)c[nH]c2n1 [Example 118, 4-{4-[(1R)-2,3-dihydro-1H-inden-1-ylamino]-2-methyl-7H-pyrrolo[2,3-d]pyrimidin-5-yl}pyridine-2,6-diamine]
10 | 1.22 | Cc1nc(N2CCOCC2)c2c(-c3cc(N)nc(N)c3)c[nH]c2n1 [Example 140, 4-[2-methyl-4-(morpholin-4-yl)-7H-pyrrolo[2,3-d]pyrimidin-5-yl]pyridine-2,6-diamine]
11 | 0.057 | Cc1nc(N[C@H]2CCc3ccccc32)c2c(-c3ccnc(N)c3)c[nH]c2n1 [Example 77, 5-(2-aminopyridin-4-yl)-N-[(1S)-2,3-dihydro-1H-inden-1-yl]-2-methyl-7H-pyrrolo[2,3-d]pyrimidin-4-amine]
12 | 0.089 | Cc1nc(-c2cccc(OCCN3CCOCC3)c2)c2c(-c3ccnc(N)c3)c[nH]c2n1 [Example 204]
13 | 0.155 | Cc1nc(-c2cccc(OCCN(C)C)c2)c2c(-c3ccnc(N)c3)c[nH]c2n1 [Example 203]
14 | 0.038 | Cc1nc(N[C@@H]2CCCc3ccccc32)c2c(-c3ccnc(N)c3)c[nH]c2n1 [Example 91, 5-(2-aminopyridin-4-yl)-2-methyl-N-[(1R)-1,2,3,4-tetrahydronaphthalen-1-yl]-7H-pyrrolo[2,3-d]pyrimidin-4-amine]
15 | 0.161 | Cc1nc(NCCC(F)(F)F)c2c(-c3ccnc(N)c3)c[nH]c2n1 [Example 100, 5-(2-aminopyridin-4-yl)-2-methyl-N-(3,3,3-trifluoropropyl)-7H-pyrrolo[2,3-d]pyrimidin-4-amine]
16 | 0.176 | Cc1nc(NC2CCCCC2)c2c(-c3ccnc(N)c3)c[nH]c2n1 [Example 93, 5-(2-aminopyridin-4-yl)-N-cyclohexyl-2-methyl-7H-pyrrolo[2,3-d]pyrimidin-4-amine]
17 | 0.121 | Cc1nc(N[C@H](C)c2ccccc2F)c2c(-c3ccnc(N)c3)c[nH]c2n1 [Example 86, 5-(2-aminopyridin-4-yl)-N-[(1R)-1-(2-fluorophenyl)ethyl]-2-methyl-7H-pyrrolo[2,3-d]pyrimidin-4-amine]
18 | 0.037 | CCOc1ccc(-c2nc(C)nc3[nH]cc(-c4ccnc(N)c4)c23)cc1 [Example 172]
19 | 0.26 | Cc1nc(Nc2ccccc2C(F)(F)F)c2c(-c3ccnc(N)c3)c[nH]c2n1 [Example 130, 5-(2-aminopyridin-4-yl)-2-methyl-N-[2-(trifluoromethyl)phenyl]-7H-pyrrolo[2,3-d]pyrimidin-4-amine]
20 | 0.066 | Cc1nc(OCc2cc(-c3ccc(F)cc3)on2)c2c(-c3ccnc(N)c3)c[nH]c2n1 [Example 24, 4-(4-{[5-(4-fluorophenyl)-1,2-oxazal-3-yl]methoxy}-2-methyl-7H-pyrrolo[2,3-d]pyrimidin-5-yl)pyridin-2-amine]
21 | 0.084 | Cc1nc(NCc2nccs2)c2c(-c3ccnc(N)c3)c[nH]c2n1 [Example 39, 5-(2-aminopyridin-4-yl)-2-methyl-N-(1,3-thiazol-2-ylmethyl)-7H-pyrrolo[2,3-d]pyrimidin-4-amine]
22 | 0.293 | Cc1nc(N2CCC3(CCC(C)CC3)C2)c2c(-c3ccnc(N)c3)c[nH]c2n1 (centres unmarked) [Example 102, 4-[2-methyl-4-(8-methyl-2-azaspiro[4.5]dec-2-yl)-7H-pyrrolo[2,3-d]pyrimidin-5-yl]pyridin-2-amine]

Row | IC50 [µM] | Compound
23 | 0.121 | Cc1nc(N2CCC(C(F)(F)F)CC2)c2c(-c3ccnc(N)c3)c[nH]c2n1 [Example 105, 4-{2-methyl-4-[4-(trifluoromethyl)piperidin-1-yl]-7H-pyrrolo[2,3-d]pyrimidin-5-yl}pyridin-2-amine]
24 | 0.883 | COC1CCN(c2nc(C)nc3[nH]cc(-c4cc(N)nc(N)c4)c23)CC1 [Example 139, 4-[4-(4-methoxypiperidin-1-yl)-2-methyl-7H-pyrrolo[2,3-d]pyrimidin-5-yl]pyridine-2,6-diamine]
25 | 0.148 | Cc1nc(-c2cccc(OCCCN3CCCCC3)c2)c2c(-c3ccnc(N)c3)c[nH]c2n1 [Example 199]
26 | 0.848 | Cc1nc(N2CCOCC2)c2c(-c3ccnc(N)c3)c[nH]c2n1 [Example 134, 4-[2-methyl-4-(morpholin-4-yl)-7H-pyrrolo[2,3-d]pyrimidin-5-yl]pyridin-2-amine]
27 | 0.172 | COc1cccc(C(F)(F)F)c1CNc1nc(C)nc2[nH]cc(-c3ccnc(C)c3)c12 [Example 146, N-[2-methoxy-6-(trifluoromethyl)benzyl]-2-methyl-5-(2-methylpyridin-4-yl)-7H-pyrrolo[2,3-d]pyrimidin-4-amine]
28 | 0.17 | Nc1cc(-c2c[nH]c3nc(C4CC4)nc(NCc4c(F)cccc4F)c23)ccn1 [Example 147, 5-(2-aminopyridin-4-yl)-2-cyclopropyl-N-(2,6-difluorobenzyl)-7H-pyrrolo[2,3-d]pyrimidin-4-amine]
29 | 0.827 | Cc1nc(N2CCCC2)c2c(-c3ccnc(N)c3)c[nH]c2n1 [Example 30, 4-[2-methyl-4-(pyrrolidin-1-yl)-7H-pyrrolo[2,3-d]pyrimidin-5-yl]pyridin-2-amine]
30 | 0.06 | Cc1nc(OCCc2c[nH]c3ccccc23)c2c(-c3ccncc3)c[nH]c2n1 [Example 9, 4-[2-(1H-indol-3-yl)ethoxy]-2-methyl-5-(pyridin-4-yl)-7H-pyrrolo[2,3-d]pyrimidine]
31 | 0.013 | Cc1nc(N2CC[C@H]3CCCC[C@@H]3C2)c2c(-c3ccnc(N)c3)c[nH]c2n1 [Example 111, 4-{2-methyl-4-[(4aR,8aS)-octahydro-isoquinolin-2(1H)-yl]-7H-pyrrolo[2,3-d]pyrimidin-5-yl}pyridin-2-amine]
32 | 0.059 | Cc1nc(N[C@H](C)c2ccccc2)c2c(-c3ccnc(N)c3)c[nH]c2n1 [Example 68, 5-(2-aminopyridin-4-yl)-2-methyl-N-[(1R)-1-phenylethyl]-7H-pyrrolo[2,3-d]pyrimidin-4-amine]
33 | 0.027 | Cc1nc(-c2cccc(OCCCN3CCN(C)CC3)c2)c2c(-c3ccnc(N)c3)c[nH]c2n1 [Example 200]
34 | 0.015 | Cc1nc(OCc2ccncc2)c2c(-c3ccnc(N)c3)c[nH]c2n1 [Example 23, 4-[2-methyl-4-(pyridin-4-ylmethoxy)-7H-pyrrolo[2,3-d]pyrimidin-5-yl]pyridin-2-amine]
35 | 2.09 | Cc1nc(NCc2cc(-c3ccccc3)no2)c2c(-c3ccnc(N)c3)c[nH]c2n1 [Example 88, 5-(2-aminopyridin-4-yl)-2-methyl N-[(3-phenyl-1,2-oxazol-5-yl)methyl]-7H-pyrrolo[2,3-d]pyrimidin-4-amine]
36 | 0.169 | Cc1nc(N2CCc3nccnc3C2)c2c(-c3ccnc(N)c3)c[nH]c2n1 [Example 136, 4-[4-(7,8-dihydropyrido[3,4-b]pyrazin-6(5H)-yl)-2-methyl-7H-pyrrolo[2,3-d]primidin-5-yl]pyridin-2-amine]
37 | 0.524 | Cc1nc(N2CC3(CCCCC3)C2)c2c(-c3ccnc(N)c3)c[nH]c2n1 [Example 109, 4-[4-(2-azaspiro[3.5]non-2-yl)-2-methyl-7H-pyrrolo[2,3-d]pyrimidin-5-yl]pyridin-2-amine]
38 | 0.079 | Cc1nc(-c2cc(F)cc(F)c2)c2c(-c3ccnc(N)c3)c[nH]c2n1 [Example 180]
39 | 0.532 | Cc1nc(CN2CCCC(F)(F)C2)c2c(-c3ccnc(N)c3)c[nH]c2n1 [Example 177]
40 | 0.043 | N#Cc1cc(-c2ccc3c(c2)OCO3)c2c(-c3ccnc(N)c3)c[nH]c2n1 [Example 223, 3-(2-aminopyridin-4-yl)-4-(1,3-benzodioxol-5-yl)-1H-pyrrolo[2,3-b]pyridine-6-carbonitrile]
41 | 0.062 | Cc1nc([C@H]2CCc3ccccc3C2)c2c(-c3ccnc(N)c3)c[nH]c2n1 [Example 189]
42 | 0.029 | COc1ccc(COc2nc(C)nc3[nH]cc(-c4ccnc(N)c4)c23)cc1 [Example 26, 4-{4-[(4-methoxybenzyl)oxy]-2-methyl-7H-pyrrolo[2,3-d]pyrimidin-5-yl}pyridin-2-amine]
43 | 0.033 | Cc1nc(-c2cccc(N3CCCC3)c2)c2c(-c3ccnc(N)c3)c[nH]c2n1 [Example 171]
44 | 0.063 | Cc1nc(N2CCCC(C)C2)c2c(-c3ccnc(N)c3)c[nH]c2n1 (centres unmarked) [Example 97, 4-[2-methyl-4-{3-methylpiperidin-1-yl)-7H-pyrrolo[2,3-d]pyrimidin-5-yl]pyridin-2-amine]
